Measured values from PubChem BioAssay (NCI).
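Briefly, cells in 96-well plates were exposed to five compound concentrations for 48 h, and endpoints were estimated by linear interpolation. Here, GI50 denotes the concentration required for 50% inhibition of growth. TGI denotes the concentration required for complete inhibition of growth.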

Columns and labels:
Experiment in all cases: NCI-60 cell line screen, 48 h
HT29 colon = test system: HT29 colon
SK-MEL-2 melanoma = test system: SK-MEL-2 melanoma
BT-549 breast = test system: BT-549 breast
MALME-3M melanoma = test system: MALME-3M melanoma
COLO 205 colon = test system: COLO 205 colon
NCI-H23 lung = test system: NCI-H23 lung
NCI-H522 lung = test system: NCI-H522 lung
UO-31 renal = test system: UO-31 renal
SK-MEL-5 melanoma = test system: SK-MEL-5 melanoma
UACC-257 melanoma = test system: UACC-257 melanoma
NCI-H226 lung = test system: NCI-H226 lung
T-47D breast = test system: T-47D breast
HOP-62 NSCLC = test system: HOP-62 NSCLC
A549 NSCLC = test system: A549 NSCLC
RXF 393 renal = test system: RXF 393 renal
ACHN renal = test system: ACHN renal
LOX IMVI melanoma = test system: LOX IMVI melanoma
MDA-MB-231 breast = test system: MDA-MB-231 breast
MOLT-4 leukemia = test system: MOLT-4 leukemia
SW-620 colon = test system: SW-620 colon
M14 melanoma = test system: M14 melanoma
SNB-19 CNS = test system: SNB-19 CNS
PC-3 prostate = test system: PC-3 prostate
SNB-75 CNS = test system: SNB-75 CNS
OVCAR-3 ovarian = test system: OVCAR-3 ovarian
NCI-H460 lung = test system: NCI-H460 lung
UACC-62 melanoma = test system: UACC-62 melanoma
786-0 renal = test system: 786-0 renal
HCT-116 colon = test system: HCT-116 colon
MCF7 breast = test system: MCF7 breast
DU-145 prostate = test system: DU-145 prostate
RPMI-8226 leukemia = test system: RPMI-8226 leukemia
SF-268 CNS = test system: SF-268 CNS
A498 renal = test system: A498 renal
K-562 leukemia = test system: K-562 leukemia
OVCAR-8 ovarian = test system: OVCAR-8 ovarian
CCRF-CEM leukemia = test system: CCRF-CEM leukemia
SK-OV-3 ovarian = test system: SK-OV-3 ovarian
CAKI-1 renal = test system: CAKI-1 renal
SK-MEL-28 melanoma = test system: SK-MEL-28 melanoma
KM12 colon = test system: KM12 colon
MDA-MB-435 = test system: MDA-MB-435
SF-539 CNS = test system: SF-539 CNS
TK-10 renal = test system: TK-10 renal
IGROV1 ovarian = test system: IGROV1 ovarian
SF-295 CNS = test system: SF-295 CNS
HL-60(TB) leukemia = test system: HL-60(TB) leukemia
NCI/ADR-RES ovarian = test system: NCI/ADR-RES ovarian
OVCAR-4 ovarian = test system: OVCAR-4 ovarian
SR leukemia = test system: SR leukemia
HS 578T breast = test system: HS 578T breast
OVCAR-5 ovarian = test system: OVCAR-5 ovarian
U251 CNS = test system: U251 CNS
EKVX NSCLC = test system: EKVX NSCLC
HCT-15 colon = test system: HCT-15 colon

Molecule `Cc1ccc(/C(=N/NS(=O)(=O)c2ccc([N+](=O)[O-])cc2)Sc2cc(Cl)c(C)cc2S(N)(=O)=O)cc1` has a GI50 (HT29 colon) greater than 100 µM, a TGI (HT29 colon) greater than 100 µM and a GI50 (SK-MEL-2 melanoma) greater than 100 µM. It also gave a TGI (SK-MEL-2 melanoma) greater than 100 µM, a GI50 (BT-549 breast) greater than 100 µM and a TGI (BT-549 breast) greater than 100 µM. For the same molecule, the GI50 (MALME-3M melanoma) was 11.9 µM, the TGI (MALME-3M melanoma) was greater than 100 µM and the GI50 (COLO 205 colon) was greater than 100 µM. For the same molecule, the TGI (COLO 205 colon) was greater than 100 µM, the GI50 (NCI-H23 lung) was greater than 100 µM and the TGI (NCI-H23 lung) was greater than 100 µM. For the same molecule, the GI50 (NCI-H522 lung) was greater than 100 µM, the TGI (NCI-H522 lung) was greater than 100 µM and the GI50 (UO-31 renal) was greater than 100 µM. It also gave a TGI (UO-31 renal) greater than 100 µM, a GI50 (SK-MEL-5 melanoma) greater than 100 µM and a TGI (SK-MEL-5 melanoma) greater than 100 µM. For the same molecule, the GI50 (UACC-257 melanoma) was greater than 100 µM, the TGI (UACC-257 melanoma) was greater than 100 µM and the GI50 (NCI-H226 lung) was greater than 100 µM. It also gave a TGI (NCI-H226 lung) greater than 100 µM, a GI50 (T-47D breast) greater than 100 µM and a TGI (T-47D breast) greater than 100 µM. For the same molecule, the GI50 (HOP-62 NSCLC) was greater than 100 µM, the TGI (HOP-62 NSCLC) was greater than 100 µM and the GI50 (A549 NSCLC) was greater than 100 µM. For the same molecule, the TGI (A549 NSCLC) was greater than 100 µM, the GI50 (RXF 393 renal) was 47.7 µM and the TGI (RXF 393 renal) was greater than 100 µM. It also gave a GI50 (ACHN renal) greater than 100 µM, a TGI (ACHN renal) greater than 100 µM and a GI50 (LOX IMVI melanoma) greater than 100 µM. For the same molecule, the TGI (LOX IMVI melanoma) was greater than 100 µM, the GI50 (MDA-MB-231 breast) was 27.3 µM and the TGI (MDA-MB-231 breast) was greater than 100 µM. For the same molecule, the GI50 (MOLT-4 leukemia) was greater than 100 µM, the TGI (MOLT-4 leukemia) was greater than 100 µM and the GI50 (SW-620 colon) was greater than 100 µM. The TGI (SW-620 colon) was greater than 100 µM, the GI50 (M14 melanoma) was greater than 100 µM and the TGI (M14 melanoma) was greater than 100 µM. For the same molecule, the GI50 (SNB-19 CNS) was greater than 100 µM, the TGI (SNB-19 CNS) was greater than 100 µM and the GI50 (PC-3 prostate) was 12.5 µM. It also gave a TGI (PC-3 prostate) greater than 100 µM, a GI50 (SNB-75 CNS) greater than 100 µM and a TGI (SNB-75 CNS) greater than 100 µM. It also gave a GI50 (OVCAR-3 ovarian) greater than 100 µM, a TGI (OVCAR-3 ovarian) greater than 100 µM and a GI50 (NCI-H460 lung) greater than 100 µM. It also gave a TGI (NCI-H460 lung) greater than 100 µM, a GI50 (UACC-62 melanoma) greater than 100 µM and a TGI (UACC-62 melanoma) greater than 100 µM. For the same molecule, the GI50 (786-0 renal) was greater than 100 µM, the TGI (786-0 renal) was greater than 100 µM and the GI50 (HCT-116 colon) was greater than 100 µM. It also gave a TGI (HCT-116 colon) greater than 100 µM, a GI50 (MCF7 breast) greater than 100 µM and a TGI (MCF7 breast) greater than 100 µM. It also gave a GI50 (DU-145 prostate) greater than 100 µM, a TGI (DU-145 prostate) greater than 100 µM and a GI50 (RPMI-8226 leukemia) of 11.9 µM. The TGI (RPMI-8226 leukemia) was greater than 100 µM, the GI50 (SF-268 CNS) was greater than 100 µM and the TGI (SF-268 CNS) was greater than 100 µM. It also gave a GI50 (A498 renal) greater than 100 µM, a TGI (A498 renal) greater than 100 µM and a GI50 (K-562 leukemia) greater than 100 µM. It also gave a TGI (K-562 leukemia) greater than 100 µM, a GI50 (OVCAR-8 ovarian) greater than 100 µM and a TGI (OVCAR-8 ovarian) greater than 100 µM. For the same molecule, the GI50 (CCRF-CEM leukemia) was greater than 100 µM, the TGI (CCRF-CEM leukemia) was greater than 100 µM and the GI50 (SK-OV-3 ovarian) was greater than 100 µM. The TGI (SK-OV-3 ovarian) was greater than 100 µM, the GI50 (CAKI-1 renal) was greater than 100 µM and the TGI (CAKI-1 renal) was greater than 100 µM. The GI50 (SK-MEL-28 melanoma) was greater than 100 µM, the TGI (SK-MEL-28 melanoma) was greater than 100 µM and the GI50 (KM12 colon) was greater than 100 µM. The TGI (KM12 colon) was greater than 100 µM, the GI50 (MDA-MB-435) was greater than 100 µM and the TGI (MDA-MB-435) was greater than 100 µM. The GI50 (SF-539 CNS) was greater than 100 µM, the TGI (SF-539 CNS) was greater than 100 µM and the GI50 (TK-10 renal) was greater than 100 µM. It also gave a TGI (TK-10 renal) greater than 100 µM, a GI50 (IGROV1 ovarian) greater than 100 µM and a TGI (IGROV1 ovarian) greater than 100 µM. For the same molecule, the GI50 (SF-295 CNS) was greater than 100 µM, the TGI (SF-295 CNS) was greater than 100 µM and the GI50 (HL-60(TB) leukemia) was greater than 100 µM. The TGI (HL-60(TB) leukemia) was greater than 100 µM, the GI50 (NCI/ADR-RES ovarian) was greater than 100 µM and the TGI (NCI/ADR-RES ovarian) was greater than 100 µM. For the same molecule, the GI50 (OVCAR-4 ovarian) was greater than 100 µM, the TGI (OVCAR-4 ovarian) was greater than 100 µM and the GI50 (SR leukemia) was greater than 100 µM. It also gave a TGI (SR leukemia) greater than 100 µM, a GI50 (HS 578T breast) greater than 100 µM and a TGI (HS 578T breast) greater than 100 µM. The GI50 (OVCAR-5 ovarian) was greater than 100 µM, the TGI (OVCAR-5 ovarian) was greater than 100 µM and the GI50 (U251 CNS) was greater than 100 µM. It also gave a TGI (U251 CNS) greater than 100 µM, a GI50 (EKVX NSCLC) greater than 100 µM and a TGI (EKVX NSCLC) greater than 100 µM. The GI50 (HCT-15 colon) was greater than 100 µM and the TGI (HCT-15 colon) was greater than 100 µM.
